Measured values taken from paper PMC5442318, “Hundreds of dual-stage antimalarial molecules discovered by a functional gametocyte screen” (Nature Communications, 2017).
Where two headings read alike, the source gives them in different places.

How the values were obtained:
[1] = system: P. falciparum stages IV–V gametocytes; assay: Gametocytocidal ATP-depletion assay (gametocyte ATP bioluminescence); type: cell-based, Plasmodium falciparum
Protocol: In parallel, the set of confirmed hits from the Pf FGAA screen was cross-compared in the gametocyte ATP-depletion assay, at 2 μM single concentration (Supplementary Data 1). This assay monitors ATP levels as surrogate of gametocyte viability.
‘Viability' of mature gametocytes was determined using the gametocyte ATP bioluminiscence assay. Briefly, stages IV–V gametocyte cultures were double-purified by differential sedimentation followed by magnetic isolation. Then, parasites (50 μl per well containing 12,500 gametocytes) were added to compound pre-dispensed 384-well plates (781091, Greiner Bio-One) and incubated at 37 °C for 48 h (3% O2, 5% CO2 and 92% N2). BacTiter-Glo kit (G8231, Promega) was used to determine the ATP levels of ‘live' parasites according to the manufacturer's instructions. After reagent addition (50 μl per well), luminescence of the plates was measured using a microplate reader (HTS counter Victor, Wallac).

[2] = system: HepG2 cells; assay: HepG2 cytotoxicity assay; type: cell-based
Protocol: After incubation, plates and CellTiter-Glo Reagent (G7571, Promega) were equilibrated at room temperature for 30 min before proceeding to develop the luminescent signal. Using a Multidrop combi dispenser, 25 μl per well of the signal developer were added to the plates and after 10 min at room temperature for stabilization, plates were read on the ViewLux system (Perkin Elmer).

[3] = system: P. falciparum stage V female gametocytes; assay: P. falciparum female gametocyte activation assay (Pf FGAA), 24 h or 48 h preincubation, Pfs25 expression readout; type: cell-based, Plasmodium falciparum NF54; details: mean, read-out: Gametocytes mean Pf FGAA IC50
Protocol: P. falciparum NF54 (originally isolated from an imported malaria case in the Netherlands in the 1980s; BEI Resources, cat. no. MRA-1000) asexual-stage culture was performed as described by Trager and Jensen[37]. Cultures synchronized at the ring stage were used to start gametocyte cultures (day 0) at 1% parasitaemia and 4% haematocrit in 200 ml final volume using culture bottles (Nalgene 3110-42, Thermo Scientific). Complete culture medium (RPMI 1640 supplemented with 25 mM HEPES, 50 μg ml^−1 hypoxanthine, 2 g l^−1 NaHCO3 and 10% pooled human male type A+ serum) was totally replaced daily for 14 days without fresh erythrocyte addition. Human serum was obtained from Interstate Blood Bank, A^+ serotype; no aspirin 2 h before drawing and no antimalarials 2 weeks before drawing. To ensure a stable temperature at 37 °C, which is crucial for gametocyte production and maturation, pre-warmed medium and a slide warmer (XH-2001, Premiere) were used. Under these conditions, parasitaemia reaches a peak of asexual stages on days 4–5, and the first gametocytes are differentiated in culture on day 6. Sexual-stage development was monitored microscopically by Giemsa-stained thin blood smears at day 7 (mainly asexual stages and stages I to III gametocytes) and day 14 (stages IV and V gametocytes).
Cultures showing mainly stage V gametocytes were purified by differential sedimentation as previously reported. The gametocyte concentration was adjusted to plate 8,000 gametocytes per well (100 μl per well) in 384-well poly-D-lysine coated plates (781946, Greiner Bio-One) containing the compounds to test. […] Female gametocyte activation was then triggered by temperature drop and addition of xanthurenic acid (D120804, Sigma) as previously described. To detect female gametes, monoclonal anti-Pfs25 antibody[38] 4B7 (BEI Resources (formerly MR4), cat. no. MRA-315) conjugated to the Cy3 fluorochrome (GE Healthcare) was added to ookinete medium (RPMI 1640 supplemented with 25 mM HEPES, 50 μg ml^−1 hypoxanthine, 2 g l^−1 NaHCO3, 100 μM xanthurenic acid and 20% human serum) at a final concentration of 0.5 μg ml^−1. Activated cultures were then kept at 26 °C for 24 h protected from light, and image acquisition was performed in the Opera High-Content Screening System (PerkinElmer). Using × 10 air objective, five images per well were taken using 532 nm excitation. Images were analysed with a Columbus image data storage and analysis system (PerkinElmer) based on a script specifically designed for this assay that considers size, roundness and intensity of fluorescence of the female activated gametocytes.
Compounds were dissolved in 100% DMSO and dispensed in the 384-well plates using an Echo-CRS liquid handler. Compounds were tested in 2–3 independent experiments. […] Based on that, Z′ factor was calculated for each plate and only those ones with values higher than 0.4 were considered acceptable for data analysis.
Assay performance statistics, such as signal to background ratio, Z′ and robust 3 s.d. activity cut-off were calculated using templates in ActivityBase XE (IDBS, Guilford, Surrey, UK). Hit population analysis and visualization were conducted using Spotfire DecisionSite (Spotfire, Inc., Somerville, MA, USA). The pIC50 (−log IC50) values were obtained using the ActivityBase XE nonlinear regression function in the full curve analysis bundle.

[4] = system: P. falciparum asexual blood stages; details: read-out: Pf Asexual blood stages XC50, cited from earlier work
[5] = P. falciparum female gametocytes
[6] = TCAMS asexual blood stage data, ref 1 (Gamo, F. J. et al., Nature 465, 305-310, 2010)
[7] = TCAMS data, ref 1 (Gamo et al., 2010)
[8] = P. falciparum female gametocyte activation assay

IC50 [3, 5] | IC50 [3] | Structure (SMILES) | Gametocytes mean ATP inhibition at 2µM [1] | HepG2 cells mean TOX50 ([2]; HepG2 cells; mean) | IC50 [4, 6] | Gametocytes mean ATP inhibition at 2µM (%) [1] | HepG2 cells mean TOX50 ([2]; mean) | IC50 [4, 7] | other results
390 nM | – | COc1cc(-c2cc(-c3ccc(S(C)(=O)=O)cc3)cnc2N)ccc1O [TCMDC-133343] | 57.72% | 41.69 µM | 100 nM | – | – | – | –
– | 870 nM | O=C(/C=C/c1ccc(Cl)c(Cl)c1)N1CCC(CN2CCC(c3c[nH]c4ccncc34)CC2)CC1 [TCMDC-140074] | – | – | – | -2.94% | 5.32 µM | 730 nM | –
830 nM | – | COc1ccc(CCNCCCCCCNCCc2ccc(Cl)cc2)c(Cl)c1OC.Cl [TCMDC-131272] | 24.24% | 5.54 µM | 820 nM | – | – | – | –
1140 nM | – | Oc1c(C(Nc2ccccn2)c2ccc(Cl)cc2Cl)ccc2cccnc12 (stereo not drawn) [TCMDC-125559] | 84.30% | 12.74 µM | 890 nM | – | – | – | –
– | 7250 nM | CC1CCCCN1CCCNc1nc(NCc2ccccc2)c2ccccc2n1 (stereo not drawn) [TCMDC-137771] | – | – | – | 38.73% | 14.62 µM | 950 nM | –
1670 nM | – | CN1CCCC1CCNCc1cccc(-c2cnc(N3CCCC(C)(C)C3)nc2)c1 (stereo not drawn) [TCMDC-133144] | 3.15% | 4.63 µM | 930 nM | – | – | – | –
– | 720 nM | COc1cc(/C=C(\C2=NC(=O)CS2)c2nc3cccnc3n2C)ccc1O [TCMDC-135917] | – | – | – | 48.81% | 21.14 µM | 1000 nM | –
– | 1510 nM | COc1ccc(Nc2nccc(-c3ccc4ccnc(NCCCCN)c4c3)n2)cc1 [TCMDC-136642] | – | – | – | 21.11% | 14.29 µM | 750 nM | –
– | 1920 nM | CC(C)(C)c1ccc(CNC(=O)/C=C/c2ccc(CNC3CCNCC3)cc2)cc1 [TCMDC-140773] | – | – | – | 8.96% | 9.47 µM | 1090 nM | –
– | 580 nM | Clc1ccc(/N=C(/NCCCCCCCN/C(=N\c2ccc(Cl)cc2)Nc2ccc(Cl)cc2)Nc2ccc(Cl)cc2)cc1 [TCMDC-137529] | – | – | – | 15.83% | 2.00 µM | 320 nM | –
– | 1420 nM | Nc1nc(N)c2c(ccc3c2ccn3Cc2cccc(F)c2)n1 [TCMDC-137810] | – | – | – | 0.71% | 0.06 µM | 3 nM | –

The remaining lines, values behind:

Structure (SMILES) | IC50 [3, 5] | IC50 [3] | Gametocytes mean ATP inhibition at 2µM [1] | HepG2 cells mean TOX50 ([2]; HepG2 cells; mean) | IC50 [4, 6] | Gametocytes mean ATP inhibition at 2µM (%) [1] | HepG2 cells mean TOX50 ([2]; mean) | IC50 [4, 7] | other results
COc1cc2nc(N3CCN(c4nc(N)c5cc(OC)c(OC)cc5n4)CC3)nc(N)c2cc1OC [TCMDC-123865] | 580 nM | – | 90.91% | 52.49 µM | 150 nM | – | – | – | –
COc1c(CNCCCCCCNCc2cc(Cl)c3ccccc3c2OC)cc(Cl)c2ccccc12.CS(=O)(=O)O [TCMDC-137958] | – | 1180 nM | – | – | – | -6.18% | 4.62 µM | 940 nM | –
COc1c(CNCCCCCCNCc2c(OC)c(OC)c3ccccc3c2OC)c(OC)c2ccccc2c1OC.CS(=O)(=O)O [TCMDC-137837] | – | 3690 nM | – | – | – | 18.67% | 4.42 µM | 960 nM | –
COc1ccc(OC)c(-c2cccc(-c3cccc(NC(=O)c4ccc([N+](=O)[O-])o4)c3)n2)c1 [TCMDC-124799] | 960 nM | – | 25.78% | 3.63 µM | 370 nM | – | – | – | –
O=C(O)C(F)(F)F.O=S(=O)(NCCN1CCCC1)c1cccc(-c2ccc(CNC3Cc4ccccc4C3)cc2)c1 [TCMDC-132241] | 3100 nM | – | 3.92% | 6.46 µM | 660 nM | – | – | – | –
COc1ccc(C[C@H](N)C(=O)N[C@H]2[C@@H](O)[C@H](n3cnc4c(N(C)C)ncnc43)O[C@@H]2CO)cc1 [TCMDC-123493] | – | – | – | 1.80 µM | 170 nM | – | – | – | inhibition at 2 µM ([1]; Plasmodium falciparum, mean): 63.8%; Selectivity ratio ([2]; HepG2 TOX50 versus Pf FGAA IC50): 6.24; IC50 ([3]; Plasmodium falciparum, P. falciparum female gametocytes): 290 nM
Cc1ccc(Cn2nc(Cl)c(N3CCCNCC3)cc2=O)cc1NC(=O)Nc1ccc(-c2ccccc2)cc1.O=C(O)C(F)(F)F [TCMDC-141697] | – | – | -13.94% | – | 670 nM | – | – | – | HepG2 cells mean TOX50 ([2]; mean; HepG2 cells): 7.25 µM; IC50 [3, 8]: 990 nM
CC(C)c1ccc(CN2CCC(CNC(=O)c3cc(-c4cccc(F)c4)cs3)C2)cc1.O=C(O)C(F)(F)F (stereo not drawn) [TCMDC-134437] | 1370 nM | – | 7.50% | 6.24 µM | 1660 nM | – | – | – | –
Cl.N=C1C=C(N)C(=O)c2ccccc21 [TCMDC-141992] | – | – | 55.55% | – | 1050 nM | – | – | – | HepG2 cells mean TOX50 ([2]; mean; HepG2 cells): 0.52 µM; IC50 [3, 8]: 11900 nM
FC(F)(F)c1ccc2[nH]c(-c3cccc(-c4cccc(CNCCN5CCNCC5)c4)c3)nc2c1.O=C(O)C(F)(F)F [TCMDC-132871] | 1220 nM | – | 0.88% | 6.61 µM | 940 nM | – | – | – | –
O=C(O)C(F)(F)F.O=S(=O)(c1ccccc1)n1ccc2cc(Nc3ncnc4cc(C#C[C@H]5CCCN5)sc34)ccc21 [TCMDC-138913] | – | 1170 nM | – | – | – | 75.13% | 5.50 µM | 1070 nM | –
CCCCCCOc1ccc2ccccc2c1CNCCCCCCNCc1c(OCCCCCC)ccc2ccccc12.CS(=O)(=O)O [TCMDC-137963] | – | 1500 nM | – | – | – | 77.54% | 2.40 µM | 1060 nM | –
CCCCOc1c(CNCCCCCCNCc2ccc3ccccc3c2OCCCC)ccc2ccccc12.CS(=O)(=O)O [TCMDC-137975] | – | 1490 nM | – | – | – | 37.85% | 2.21 µM | 870 nM | –
FC(F)(F)c1cccc(Nc2nc3ccccc3nc2Nc2cccc(C(F)(F)F)c2)c1 [TCMDC-124162] | 2400 nM | – | 20.50% | 17.68 µM | 140 nM | – | – | – | –
CNCCNCc1ccc(-c2ccc(-c3nc4cc(C(F)(F)F)ccc4[nH]3)s2)cc1.O=C(O)C(F)(F)F [TCMDC-132838] | 1280 nM | – | -8.87% | 6.10 µM | 600 nM | – | – | – | –
